Measured values from ChEMBL document CHEMBL3046265, “Synthesis, evaluation of antimicrobial activity, and molecular modeling of novel 2-((4-(2H-benzo[d] [1,2,3] triazol-2-yl)piperidin-1-yl)methyl)-5-substituted phenyl-1,3,4-oxadiazoles” (2013).
Activity calls are given as the source filed them. No cut-off for these calls is given here.

How the values were obtained:
Type in all cases: functional
Colletotrichum falcatum [1] = experiment: Antifungal activity against Glomerella tucumanensis at 300 ug/ml after 48 hr; settings: read-out: IZ
Fusarium oxysporum [2] = experiment: Antifungal activity against Fusarium oxysporum at 1200 ug/ml after 48 hr; settings: read-out: IZ
Fusarium oxysporum [3] = experiment: Antifungal activity against Fusarium oxysporum at 900 ug/ml after 48 hr; settings: read-out: IZ
Fusarium oxysporum [4] = experiment: Antifungal activity against Fusarium oxysporum at 600 ug/ml after 48 hr; settings: read-out: IZ
Fusarium oxysporum [5] = experiment: Antifungal activity against Fusarium oxysporum at 300 ug/ml after 48 hr; settings: read-out: IZ
Candida albicans [6] = experiment: Antifungal activity against Candida albicans at 1200 ug/ml after 48 hr; settings: read-out: IZ
Candida albicans [7] = experiment: Antifungal activity against Candida albicans at 900 ug/ml after 48 hr; settings: read-out: IZ
Candida albicans [8] = experiment: Antifungal activity against Candida albicans at 600 ug/ml after 48 hr; settings: read-out: IZ
Candida albicans [9] = experiment: Antifungal activity against Candida albicans at 300 ug/ml after 48 hr; settings: read-out: IZ
Exserohilum rostratum [10] = experiment: Antifungal activity against Setosphaeria rostrata at 1200 ug/ml after 48 hr; settings: read-out: IZ
Exserohilum rostratum [11] = experiment: Antifungal activity against Setosphaeria rostrata at 900 ug/ml after 48 hr; settings: read-out: IZ
Exserohilum rostratum [12] = experiment: Antifungal activity against Setosphaeria rostrata at 600 ug/ml after 48 hr; settings: read-out: IZ
Exserohilum rostratum [13] = experiment: Antifungal activity against Setosphaeria rostrata at 300 ug/ml after 48 hr; settings: read-out: IZ
Colletotrichum falcatum [14] = experiment: Antifungal activity against Glomerella tucumanensis at 1200 ug/ml after 48 hr; settings: read-out: IZ
Colletotrichum falcatum [15] = experiment: Antifungal activity against Glomerella tucumanensis at 900 ug/ml after 48 hr; settings: read-out: IZ
Colletotrichum falcatum [16] = experiment: Antifungal activity against Glomerella tucumanensis at 600 ug/ml after 48 hr; settings: read-out: IZ
Proteus vulgaris [17] = experiment: Antibacterial activity against Proteus vulgaris at 900 ug/ml after overnight incubation; settings: read-out: IZ
Escherichia coli [18] = experiment: Antibacterial activity against Escherichia coli at 600 ug/ml after overnight incubation; settings: read-out: IZ
Escherichia coli [19] = experiment: Antibacterial activity against Escherichia coli at 900 ug/ml after overnight incubation; settings: read-out: IZ
Proteus vulgaris [20] = experiment: Antibacterial activity against Proteus vulgaris at 600 ug/ml after overnight incubation; settings: read-out: IZ
Streptococcus pyogenes [21] = experiment: Antibacterial activity against Streptococcus pyogenes at 900 ug/ml after overnight incubation; settings: read-out: IZ
Streptococcus pyogenes [22] = experiment: Antibacterial activity against Streptococcus pyogenes at 600 ug/ml after overnight incubation; settings: read-out: IZ
Staphylococcus aureus [23] = experiment: Antibacterial activity against Staphylococcus aureus at 900 ug/ml after overnight incubation
Staphylococcus aureus [24] = experiment: Antibacterial activity against Staphylococcus aureus at 600 ug/ml after overnight incubation
Bacillus pumilus [25] = experiment: Antibacterial activity against Bacillus pumilus at 900 ug/ml after overnight incubation; settings: read-out: IZ
Bacillus pumilus [26] = experiment: Antibacterial activity against Bacillus pumilus at 600 ug/ml after overnight incubation; settings: read-out: IZ
Priestia megaterium [27] = experiment: Antibacterial activity against Bacillus megaterium at 900 ug/ml after overnight incubation
Priestia megaterium [28] = experiment: Antibacterial activity against Bacillus megaterium at 600 ug/ml after overnight incubation
Bacillus subtilis [29] = experiment: Antibacterial activity against Bacillus subtilis at 900 ug/ml after overnight incubation; settings: read-out: IZ
Bacillus subtilis [30] = experiment: Antibacterial activity against Bacillus subtilis at 600 ug/ml after overnight incubation; settings: read-out: IZ
Klebsiella aerogenes [31] = experiment: Antibacterial activity against Enterobacter aerogenes at 900 ug/ml after overnight incubation; settings: read-out: IZ
Klebsiella aerogenes [32] = experiment: Antibacterial activity against Enterobacter aerogenes at 600 ug/ml after overnight incubation; settings: read-out: IZ
Klebsiella pneumoniae [33] = experiment: Antibacterial activity against Klebsiella pneumoniae at 900 ug/ml after overnight incubation; settings: read-out: IZ
Klebsiella pneumoniae [34] = experiment: Antibacterial activity against Klebsiella pneumoniae at 600 ug/ml after overnight incubation; settings: read-out: IZ
Enterococcus faecalis [35] = experiment: Antibacterial activity against Enterococcus faecalis at 900 ug/ml after overnight incubation; settings: read-out: IZ
Enterococcus faecalis [36] = experiment: Antibacterial activity against Enterococcus faecalis at 600 ug/ml after overnight incubation; settings: read-out: IZ

Row | Structure (SMILES) | zone of inhibition at 300 µg/mL (Colletotrichum falcatum [1]) [mm] | zone of inhibition at 1200 µg/mL (Fusarium oxysporum [2]) [mm] | zone of inhibition at 900 µg/mL (Fusarium oxysporum [3]) [mm] | zone of inhibition at 600 µg/mL (Fusarium oxysporum [4]) [mm] | zone of inhibition at 300 µg/mL (Fusarium oxysporum [5]) [mm] | zone of inhibition at 1200 µg/mL (Candida albicans [6]) [mm] | zone of inhibition at 900 µg/mL (Candida albicans [7]) [mm] | zone of inhibition at 600 µg/mL (Candida albicans [8]) [mm] | zone of inhibition at 300 µg/mL (Candida albicans [9]) [mm] | zone of inhibition at 1200 µg/mL (Exserohilum rostratum [10]) [mm] | zone of inhibition at 900 µg/mL (Exserohilum rostratum [11]) [mm] | zone of inhibition at 600 µg/mL (Exserohilum rostratum [12]) [mm] | zone of inhibition at 300 µg/mL (Exserohilum rostratum [13]) [mm] | zone of inhibition at 1200 µg/mL (Colletotrichum falcatum [14]) [mm] | zone of inhibition at 900 µg/mL (Colletotrichum falcatum [15]) [mm] | zone of inhibition at 600 µg/mL (Colletotrichum falcatum [16]) [mm] | zone of inhibition at 900 µg/mL (Proteus vulgaris [17]) [mm] | zone of inhibition at 600 µg/mL (Escherichia coli [18]) [mm] | zone of inhibition at 900 µg/mL (Escherichia coli [19]) [mm] | zone of inhibition at 600 µg/mL (Proteus vulgaris [20]) [mm] | further results
1 | CCC(C)n1ncn(-c2ccc(N3CCN(c4ccc(OCC5COC(Cn6cncn6)(c6ccc(Cl)cc6Cl)O5)cc4)CC3)cc2)c1=O (stereo not drawn) [ITRACONAZOLE] | 4.67 | 39.6 | 20 | 10.8 | 4.82 | 25.1 | 12 | 5.35 | 2.62 | 29.6 | 14.8 | 7.56 | 3.58 | 33.4 | 18.3 | 9.34 | – | – | – | – | –
2 | CC(C)(C)c1cc(-c2nnc(CN3CCC(n4nc5ccccc5n4)CC3)o2)cc(C(C)(C)C)c1 | 3.98 | 33.8 | 17.9 | 9.25 | 4.5 | 29.9 | 15 | 7.08 | 3.97 | 29.8 | 15.9 | 8.25 | 4.54 | 32 | 15.8 | 8.32 | 9.45 | 3.25 | 6.8 | 4.95 | zone of inhibition at 900 µg/mL (Streptococcus pyogenes [21]): 8.95 mm; zone of inhibition at 600 µg/mL (Streptococcus pyogenes [22]): 3.95 mm; zone of inhibition at 900 µg/mL (Staphylococcus aureus [23]; read-out: IZ): 9.05 mm; zone of inhibition at 600 µg/mL (Staphylococcus aureus [24]; read-out: IZ): 4.3 mm; zone of inhibition at 900 µg/mL (Bacillus pumilus [25]): 9.95 mm; zone of inhibition at 600 µg/mL (Bacillus pumilus [26]): 4.56 mm; zone of inhibition at 900 µg/mL (Priestia megaterium [27]; read-out: IZ): 8.21 mm; zone of inhibition at 600 µg/mL (Priestia megaterium [28]; read-out: IZ): 3.95 mm; zone of inhibition at 900 µg/mL (Bacillus subtilis [29]): 11.2 mm; zone of inhibition at 600 µg/mL (Bacillus subtilis [30]): 5.05 mm; zone of inhibition at 900 µg/mL (Klebsiella aerogenes [31]): 7.25 mm; zone of inhibition at 600 µg/mL (Klebsiella aerogenes [32]): 3.5 mm; zone of inhibition at 900 µg/mL (Klebsiella pneumoniae [33]): 7.85 mm; zone of inhibition at 600 µg/mL (Klebsiella pneumoniae [34]): 3.85 mm; zone of inhibition at 900 µg/mL (Enterococcus faecalis [35]): 11.6 mm; zone of inhibition at 600 µg/mL (Enterococcus faecalis [36]): 5.85 mm
3 | COc1cccc(-c2nnc(CN3CCC(n4nc5ccccc5n4)CC3)o2)c1 | 4.56 | 21.3 | 10.1 | 5.86 | 3.35 | 17.2 | 9.86 | 5.01 | 2.52 | 19.2 | 10.2 | 5.85 | 3.32 | 25.9 | 13.9 | 7.76 | 8.45 | 3.35 | 6.26 | 4.36 | zone of inhibition at 900 µg/mL (Streptococcus pyogenes [21]): 11.3 mm; zone of inhibition at 600 µg/mL (Streptococcus pyogenes [22]): 4.47 mm; inhibition zone (IZ) (Staphylococcus aureus [23]): inactive; inhibition zone (IZ) (Staphylococcus aureus [24]): inactive; zone of inhibition at 900 µg/mL (Bacillus pumilus [25]): 11.2 mm; zone of inhibition at 600 µg/mL (Bacillus pumilus [26]): 5.56 mm; inhibition zone (IZ) (Priestia megaterium [27]): inactive; inhibition zone (IZ) (Priestia megaterium [28]): inactive; zone of inhibition at 900 µg/mL (Bacillus subtilis [29]): 9.56 mm; zone of inhibition at 600 µg/mL (Bacillus subtilis [30]): 4.25 mm; zone of inhibition at 900 µg/mL (Klebsiella aerogenes [31]): 7.56 mm; zone of inhibition at 600 µg/mL (Klebsiella aerogenes [32]): 3.65 mm; zone of inhibition at 900 µg/mL (Klebsiella pneumoniae [33]): 7.25 mm; zone of inhibition at 600 µg/mL (Klebsiella pneumoniae [34]): 3.25 mm; zone of inhibition at 900 µg/mL (Enterococcus faecalis [35]): 9.26 mm; zone of inhibition at 600 µg/mL (Enterococcus faecalis [36]): 4.25 mm
